Literature values, collected in patent US5840893A, “Compounds for treating infectious diseases” (priority 1996, dated 1998).

System: importation of HIV-1 into the nucleus
Settings: 0.1M peptide in medium; aphidicolin-arrested CD4+ MT4 cells; cited from earlier work

Substance: SV40 T-antigen NLS: the peptide having the sequence of the SV40 T-antigen NLS (PKKKRKV)
- block of HIV-1 importation into the nucleus: blocked the importation of HIV-1 into the nucleus
